Assay results as given in article PMC8794255, “Small molecule inhibitor of Igf2bp1 represses Kras and a pro-oncogenic phenotype in cancer cells” (RNA Biology, 2021).
Where “and” joins values, the source holds several entries; their conditions need not be identical. Equal values may be shown once.

Key:
[1] = test system: Igf2bp1-cMyc RNA interaction; design: method as in PMID 28846937; conditions: fluorescence polarization; cited from earlier work
[2] = design: method as in PMID 28846937; conditions: cited from earlier work
Igf2bp1 [3] = biological target: T1, Igf2bp1 (Homo sapiens, UniProt Q9NZI8); assay: Fluorescence polarization (FP) assay of Igf2bp1 binding to fluorescent Kras 6 RNA; conditions: FP dose response; read-out: IC50, inhibition of Igf2bp1 binding to Kras 6 RNA
T1 construct: Recombinant full-length Igf2bp1 protein was labelled with RED-tris-NTA dye; made in house
Protocol: For the small-molecule screen, compounds were obtained from the collection maintained at the Grand Israel National Center for Personalized Medicine, consisting of molecules purchased from commercial vendors. Labelled RNA (10 nM) was incubated with recombinant Igf2bp1 protein (400 nM) in FAM-RNA buffer (10 mM Tris pH 8.0, 75 mM KCl, 0.5 mM EDTA, 1 mM DTT, 0.0188 U/μL RNAsin, 0.0005 μg/mL heparin, 0.0001 μg/μL tRNA, 0.01% Triton X-100, 3 mM MgCl2, 0.05% IGEPAL) at room temperature for 15 min. 7 μL of this reaction mix was aliquoted with GNF WDII (USA) into wells of 1536 well plates, with a final concentration of 20 μM compound or DMSO. The plates were spun down and read in a BMG Pherastar FS (Germany) plate reader, in FP mode with a 485/520/520 polarization filter, calibrated to 35 mP for free fluorescein with similar total intensity as experimental samples. […]
To determine the quality of our screening assay, the Z’ factor for each plate was calculated with a Z’ factor greater than 0.5 indicating a robust assay suitable for high throughput screening. Compounds that altered the overall fluorescence intensity compared to controls were considered auto florescence and excluded from further analysis. […] Any small molecule that causes a change of more than three standard deviations from the mean is determined appropriate for further investigation.

Igf2bp1 [4] = biological target: T1, Igf2bp1; assay: Microscale thermophoresis (MST), full-length Igf2bp1; conditions: full-length protein, read-out: KD of compound binding to Igf2bp1
Protocol: Recombinant full-length Igf2bp1 protein was labelled with RED-tris-NTA dye using a Monolith NT His-Tag Labelling Kit (NanoTemper) while RRM12, KH12 and KH34 di-domain peptides were labelled using the Protein Labelling Kit RED NHS 2nd generation (NanoTemper). Labelled proteins were spun at 15,000 g for 5 min to eliminate aggregates. All samples were 2X labelled protein mix of Igf2bp1 (200 nM) in PBST and were combined (1:1) with serial dilutions of compound or Kras6 RNA in binding buffer (10mMTris pH = 7.5, 100 mM NaCl, 0.1 mM EDTA, 0.06% IPEGAL, 0.02 μg/μL tRNA, 2 mM DTT, 0.1 μg/μL heparin) in final volume of 20 μL, room temperature for 15 min. Samples were then loaded into standard capillaries (NanoTemper) and read in the Monolith NT.115 scanner (NanoTemper) using the red filter with reading conditions of 95% LED power and 40% MST power, 5 sec fluorescence before, 30 sec MST on, 5 sec fluorescence after and 25 sec delay between samples. Results were analysed using the MO Control software (NanoTemper) for curve fitting to KD.

Igf2bp1 [5] = biological target: T1, Igf2bp1; assay: EMSA, Igf2bp1 with fluorescent Kras 6 RNA; format: binding; conditions: compound pre-incubated with protein; 7773 at 200 μM
Protocol: Recombinant Igf2bp1 protein was serially diluted (1:1) starting at an initial concentration of 10,000 nM in 0.75 μg heparin, in a total volume of 13 μL. […] 2 μL RNA was added to each well protein sample, and after a 30 min incubation at room temperature in the dark, loading dye (3 μL) (30% glycerol, 0.01% bromocresol green) was added to each mixture. For compound inhibition experiments, compounds or DMSO were incubated for 4 hours at 37 °C with the protein prior to adding the RNA. Samples were electrophoresed on native TBE polyacrylamide gels (6% acrylamide/bis-acrylamide 37.5:1, 0.5X TBE) that had been pre-run for 30 min. Gels were run at 120 V in 0.5X TBE, at 4°C in the dark. They were then carefully washed and scanned using a Typhoon FLA9500 imager using Alexa 488 laser and LPB1/2 filter. Igf2bp1-RNA complex formation was quantified using the ImageJ software. Prism6 software was used for curve fitting and KD calculations.

T1 sequence (Q9NZI8 whole entry): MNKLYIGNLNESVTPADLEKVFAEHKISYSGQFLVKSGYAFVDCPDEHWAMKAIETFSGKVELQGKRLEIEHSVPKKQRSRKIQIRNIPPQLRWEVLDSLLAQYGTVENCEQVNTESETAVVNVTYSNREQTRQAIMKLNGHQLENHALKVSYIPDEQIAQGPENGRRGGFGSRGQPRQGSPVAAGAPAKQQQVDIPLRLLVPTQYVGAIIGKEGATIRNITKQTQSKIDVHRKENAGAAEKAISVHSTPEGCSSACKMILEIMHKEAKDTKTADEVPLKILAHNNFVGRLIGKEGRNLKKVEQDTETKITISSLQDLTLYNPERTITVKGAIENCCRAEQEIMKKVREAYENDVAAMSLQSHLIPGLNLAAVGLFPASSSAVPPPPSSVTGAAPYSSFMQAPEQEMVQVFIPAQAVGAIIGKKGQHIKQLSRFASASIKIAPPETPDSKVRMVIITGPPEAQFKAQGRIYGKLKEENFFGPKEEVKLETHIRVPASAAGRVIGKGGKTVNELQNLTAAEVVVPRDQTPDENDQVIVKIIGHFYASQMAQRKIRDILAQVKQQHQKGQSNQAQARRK

Row | IC50 (Igf2bp1 [3]) | Kd (Igf2bp1 [4]) | Compound | Inhibition of Igf2bp1-cMyc RNA interaction in vitro [1] | Effect on cell proliferation [2] | Inhibition of Igf2bp1 binding to Kras 6 RNA (gel shift) (Igf2bp1 [5])
1 | – | – | NC(=O)c1ccccc1N=Cc1ccc(Br)s1 [BTYNB] | inhibited Igf2bp1-cMyc RNA interaction in vitro | appears to inhibit cell proliferation | –
2 | ~90 µM | > 100 µM and ~120 µM | O=C(c1cccc(-n2cnnn2)c1)N1CCCC(Nc2ccc3c(c2)OCO3)C1 (centres unmarked) [compound 393] | – | – | lower, but observable, inhibition of RNA binding
